Test [1] addresses T1, Recombinant human PKC-theta (His-tagged 362-706) (Homo sapiens, UniProt Q04759).
T1 construct: Recombinant human PKC-theta (His-tagged 362-706); His
In words: PKC-theta inhibition assay (HTRF KinEASE kit). The test is classed as biochemical. Particulars: ATP 6.5 μM, STK substrate 525 nM. Summed up:
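IC50 values were from 4-parameter logistic fits of percent inhibition, based on acceptor/donor HTRF ratios over 10 semi-log compound doses. Kinase reactions, started with substrate plus ATP, ran 30 min at 25 °C in buffer supplemented with 10 mM MgCl2, 1 mM DTT and 0.1% Tween 20; detection lasted 2 h.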
(In general: Time-resolved FRET reads energy transfer from a long-lived donor to a nearby acceptor.)

In test [2] the test system is IL-2 secretion by human effector memory T cells (TEM). In words: Effector memory T cells IL-2 release assay (CD3/CD28 stimulation, HTRF IL-2 detection). The test is classed as cell-based. Particulars: Homo sapiens, T-cell, 24 h. The essentials:
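Human effector memory T cells from healthy-donor buffy coats were exposed in triplicate to ten semi-log doses of compound in 0.1% DMSO. The cells were stimulated and incubated 24 h at 37 °C. Secreted IL-2 in the supernatant was measured by HTRF.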

In test [3] the target is T2, Recombinant human PKC-delta (His-tagged 345-676) (Homo sapiens, UniProt Q05655).
T2 construct: PKC-delta (His-tagged 345-676); His
In words: PKC-delta inhibition assay (HTRF KinEASE kit). It is filed as biochemical. Particulars: ratio, PKC-theta vs PKC-delta HTRF; for PKC-theta/PKC-delta selectivity (binned): binned A to G.

Where [4] appears, read: binned A to H, read-out: PKC-theta HTRF pIC50 (binned) (converted).
Setting [5] is: read-out: PKC-theta HTRF pIC50 (converted).
The mark [6] stands for this setting: binned A to G, read-out: PKC-theta IL2 pIC50 (binned) (converted).
The mark [7] stands for this setting: read-out: PKC-theta IL2 pIC50 (converted).

Read-outs that look alike come from different tables or passages of the source. Bounds are passed on as bounds.

T1 sequence (Q04759 362-706): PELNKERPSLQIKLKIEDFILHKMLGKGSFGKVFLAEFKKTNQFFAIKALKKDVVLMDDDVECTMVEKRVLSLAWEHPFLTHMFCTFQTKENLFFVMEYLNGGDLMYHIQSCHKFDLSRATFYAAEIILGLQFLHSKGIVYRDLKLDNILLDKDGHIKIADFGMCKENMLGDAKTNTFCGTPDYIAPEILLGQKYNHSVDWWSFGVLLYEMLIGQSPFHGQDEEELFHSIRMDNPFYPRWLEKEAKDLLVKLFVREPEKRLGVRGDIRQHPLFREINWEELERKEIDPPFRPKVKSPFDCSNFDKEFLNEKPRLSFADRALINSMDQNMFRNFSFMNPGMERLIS
T2 sequence (Q05655 345-676): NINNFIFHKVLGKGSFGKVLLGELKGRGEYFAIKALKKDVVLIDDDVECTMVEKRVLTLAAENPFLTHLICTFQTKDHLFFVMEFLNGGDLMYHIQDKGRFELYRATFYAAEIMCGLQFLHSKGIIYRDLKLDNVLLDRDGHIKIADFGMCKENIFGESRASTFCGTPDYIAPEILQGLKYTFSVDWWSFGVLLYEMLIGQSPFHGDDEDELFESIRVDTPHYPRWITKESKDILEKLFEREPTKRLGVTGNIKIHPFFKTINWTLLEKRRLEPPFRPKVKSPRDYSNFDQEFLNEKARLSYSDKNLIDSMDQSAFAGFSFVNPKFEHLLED

In the case of `CC1(C)C(=O)Nc2nccc(-c3cc(C(F)(F)F)cc(C4(CO)CCNC4)n3)c21` (stereo not drawn) [Example 70], the IC50 in test [1] (setting [4]) is 1 to 3.16 nM; in test [1] (setting [5]), 2.51 nM; in test [2] (setting [6]), 316 to 1000 nM; in test [2] (setting [7]) it was 398 nM. Moreover, the PKC-theta/PKC-delta selectivity in test [3] was found to be 30. Also, in test [3], the “PKC-theta/PKC-delta selectivity (binned)” value is “B (a ratio of between 30 and 50)”.

On to `CC[C@H]1CN(c2cc(C(F)(F)F)cc(-c3ccnc4c3C(C)(O)C(=O)N4)n2)CCN1` (stereo partly drawn) [Example 71], for which the IC50 in test [1] (setting [4]) is 1 to 3.16 nM; in test [1] (setting [5]), 1.26 nM; in test [2] (setting [6]) it was 31.6 to 100 nM; in test [2] (setting [7]), 31.6 nM. Besides, in test [3], the PKC-theta/PKC-delta selectivity was determined as 12. Besides, the “PKC-theta/PKC-delta selectivity (binned)” value in test [3] is “D (a ratio of between 10 and 20)”.

Regarding `CC[C@@H]1CN(c2cc(C(F)(F)F)cc(-c3ccnc4c3C(C)(O)C(=O)N4)n2)CCN1` (stereo partly drawn) [Example 72], the IC50 in test [1] (setting [4]) is 10 to 31.6 nM; in test [1] (setting [5]), 25.1 nM; in test [2] (setting [6]) it was 100 to 316 nM; in test [2] (setting [7]) it was 316 nM. For the same molecule, in test [3], the PKC-theta/PKC-delta selectivity was 12. The “PKC-theta/PKC-delta selectivity (binned)” value in test [3] was “D (a ratio of between 10 and 20)”.

As for `C[C@@H]1CN(c2cc(Cl)cc(-c3ccnc4c3C(C)(O)C(=O)N4)n2)CCN1` (stereo partly drawn) [Example 73], the IC50 in test [1] (setting [4]) is 3.16 to 10 nM; in test [1] (setting [5]), 6.31 nM; in test [2] (setting [6]), 100 to 316 nM; in test [2] (setting [7]) it was 126 nM. For the same molecule, the PKC-theta/PKC-delta selectivity in test [3] came to 11. The “PKC-theta/PKC-delta selectivity (binned)” value in test [3] was “D (a ratio of between 10 and 20)”.

With `C[C@H]1CN(c2cc(Cl)cc(-c3ccnc4c3C(C)(O)C(=O)N4)c2)CCN1` (stereo partly drawn) [Example 75], the IC50 in test [1] (setting [4]) was 3.16 to 10 nM; in test [1] (setting [5]), 7.94 nM; in test [2] (setting [6]), 100 to 316 nM; in test [2] (setting [7]), 158 nM. Moreover, the PKC-theta/PKC-delta selectivity in test [3] was 11. Moreover, in test [3], the “PKC-theta/PKC-delta selectivity (binned)” value was “D (a ratio of between 10 and 20)”.

Take `C[C@@H]1CN(c2cc(Cl)cc(-c3ccnc4c3C(C)(O)C(=O)N4)c2)CCN1` (stereo partly drawn) [Example 76]: the IC50 was 31.6 to 100 nM in test [1] (setting [4]), 50.1 nM in test [1] (setting [5]), 316 to 1000 nM in test [2] (setting [6]) and 794 nM in test [2] (setting [7]). Moreover, in test [3], the PKC-theta/PKC-delta selectivity is on record as 11. Besides, the “PKC-theta/PKC-delta selectivity (binned)” value in test [3] is “D (a ratio of between 10 and 20)”.

On to `C[C@@H]1CN(c2cc(-c3ccnc4c3C(C)(O)C(=O)N4)cc(C(F)(F)F)c2)CCN1` (stereo partly drawn) [Example 77], for which the IC50 is 31.6 to 100 nM in test [1] (setting [4]), 100 nM in test [1] (setting [5]), greater than 1000 nM in test [2] (setting [6]) and 2510 nM in test [2] (setting [7]). In test [3], the PKC-theta/PKC-delta selectivity is 12. In addition, the “PKC-theta/PKC-delta selectivity (binned)” value in test [3] is “D (a ratio of between 10 and 20)”.

In the case of `C[C@H]1CN(c2cc(-c3ccnc4c3C(C)(O)C(=O)N4)cc(C(F)(F)F)c2)CCN1` (stereo partly drawn) [Example 78], the IC50 is 10 to 31.6 nM in test [1] (setting [4]), 15.8 nM in test [1] (setting [5]), 100 to 316 nM in test [2] (setting [6]) and 158 nM in test [2] (setting [7]). In test [3], the PKC-theta/PKC-delta selectivity is reported as 11. In test [3], the “PKC-theta/PKC-delta selectivity (binned)” value was “D (a ratio of between 10 and 20)”.

As to `CC1(C)C(=O)Nc2ncc(Cl)c(-c3cc(F)cc(N4CCNCC4)c3)c21` [Example 79], the IC50 in test [1] (setting [4]) was 31.6 to 100 nM; in test [1] (setting [5]) it was 39.8 nM; in test [2] (setting [6]), 316 to 1000 nM; in test [2] (setting [7]), 794 nM. The PKC-theta/PKC-delta selectivity in test [3] was 2. Further, in test [3], the “PKC-theta/PKC-delta selectivity (binned)” value was “F (a ratio of between 1 and 5)”.

For the molecule `CC1(O)C(=O)Nc2nccc(-c3cc(C(F)(F)F)cc(N4CCNCC4)n3)c21` (stereo not drawn) [Example 80], the IC50 in test [1] (setting [4]) was 3.16 to 10 nM; in test [1] (setting [5]), 6.31 nM; in test [2] (setting [6]), 31.6 to 100 nM; in test [2] (setting [7]), 79.4 nM. Moreover, the PKC-theta/PKC-delta selectivity in test [3] came out at 12. In addition, in test [3], the “PKC-theta/PKC-delta selectivity (binned)” value was “D (a ratio of between 10 and 20)”.

As for `CC1(C)C(=O)Nc2nccc(-c3cc(C(F)(F)F)cc(N4CCN[C@@H](CO)C4)n3)c21` [Example 83], the IC50 in test [1] (setting [4]) was 1 to 3.16 nM; in test [1] (setting [5]), 3.16 nM; in test [2] (setting [6]) it was 31.6 to 100 nM; in test [2] (setting [7]), 79.4 nM. Besides, the PKC-theta/PKC-delta selectivity in test [3] is reported as 20. For the same molecule, the “PKC-theta/PKC-delta selectivity (binned)” value in test [3] is “D (a ratio of between 10 and 20)”.

On to `CC1(C)C(=O)Nc2nccc(-c3cc(C(F)(F)F)cc(N4CCNC5(CC5)C4)n3)c21` [Example 84], for which the IC50 is 3.16 to 10 nM in test [1] (setting [4]), 7.94 nM in test [1] (setting [5]), 316 to 1000 nM in test [2] (setting [6]) and 316 nM in test [2] (setting [7]). Besides, in test [3], the PKC-theta/PKC-delta selectivity amounted to 14. For the same molecule, in test [3], the “PKC-theta/PKC-delta selectivity (binned)” value was “D (a ratio of between 10 and 20)”.

Take `CC1(C)C(=O)Nc2nccc(-c3cc(C(F)(F)F)cc(N4CC5CC4CN5)n3)c21` (stereo not drawn) [Example 85]: the IC50 in test [1] (setting [4]) was 10 to 31.6 nM; in test [1] (setting [5]) it was 20 nM; in test [2] (setting [6]) it was 316 to 1000 nM; in test [2] (setting [7]), 316 nM. The PKC-theta/PKC-delta selectivity in test [3] was 20. Also, the “PKC-theta/PKC-delta selectivity (binned)” value in test [3] was “D (a ratio of between 10 and 20)”.

Turning to `CC1(C)C(=O)Nc2nccc(-c3cc(OC(F)F)cc(N4CCNCC4)n3)c21` [Example 86], the IC50 in test [1] (setting [4]) is 31.6 to 100 nM; in test [1] (setting [5]), 31.6 nM; in test [2] (setting [6]) it was 316 to 1000 nM; in test [2] (setting [7]), 501 nM. Besides, the PKC-theta/PKC-delta selectivity in test [3] turned out to be 10. In addition, the “PKC-theta/PKC-delta selectivity (binned)” value in test [3] is “E (a ratio of between 5 and 10)”.

Regarding `CC1(C)C(=O)Nc2nccc(-c3cc(C(F)F)cc(N4CCNCC4)n3)c21` [Example 87], the IC50 was 3.16 to 10 nM in test [1] (setting [4]), 6.31 nM in test [1] (setting [5]), 100 to 316 nM in test [2] (setting [6]) and 100 nM in test [2] (setting [7]). For the same molecule, the PKC-theta/PKC-delta selectivity in test [3] is on record as 10. Also, the “PKC-theta/PKC-delta selectivity (binned)” value in test [3] is “D (a ratio of between 10 and 20)”.

As to `CC1(C)C(=O)Nc2nccc(-c3cc(C(F)(F)F)nc(N4CCNCC4)n3)c21` [Example 98], the IC50 is 10 to 31.6 nM in test [1] (setting [4]), 20 nM in test [1] (setting [5]), 100 to 316 nM in test [2] (setting [6]) and 316 nM in test [2] (setting [7]). In addition, the PKC-theta/PKC-delta selectivity in test [3] stood at 15. In addition, in test [3], the “PKC-theta/PKC-delta selectivity (binned)” value was “D (a ratio of between 10 and 20)”.

Regarding `CN1CCN(c2cc(C(F)(F)F)cc(-c3ccnc4c3C(C)(C)C(=O)N4)n2)CC1` [Example 99], the IC50 was 10 to 31.6 nM in test [1] (setting [4]), 31.6 nM in test [1] (setting [5]), 316 to 1000 nM in test [2] (setting [6]) and 794 nM in test [2] (setting [7]). The PKC-theta/PKC-delta selectivity in test [3] worked out at 22. The “PKC-theta/PKC-delta selectivity (binned)” value in test [3] was “C (a ratio of between 20 and 30)”.

Take `CC1(C)C(=O)Nc2nccc(-c3cc(C(F)(F)F)cc(NC4CCNC4)n3)c21` (stereo not drawn) [Example 100]: the IC50 in test [1] (setting [4]) was 31.6 to 100 nM; in test [1] (setting [5]), 63.1 nM; in test [2] (setting [6]) it was greater than 1000 nM; in test [2] (setting [7]), 5010 nM. In addition, in test [3], the PKC-theta/PKC-delta selectivity turned out to be 30. Also, the “PKC-theta/PKC-delta selectivity (binned)” value in test [3] is “B (a ratio of between 30 and 50)”.

On to `C[C@H]1CNCCN1c1cc(C(F)(F)F)cc(-c2ccnc3c2C(C)(C)C(=O)N3)n1` [Example 101], for which the IC50 in test [1] (setting [4]) was 3.16 to 10 nM; in test [1] (setting [5]) it was 6.31 nM; in test [2] (setting [6]), 31.6 to 100 nM; in test [2] (setting [7]), 100 nM. Also, in test [3], the PKC-theta/PKC-delta selectivity was determined as 12. For the same molecule, the “PKC-theta/PKC-delta selectivity (binned)” value in test [3] is “D (a ratio of between 10 and 20)”.
